According to the NIST ThermoML archive (doi:10.1016/j.fluid.2015.09.010):
Numbers after ± are expanded uncertainties.

Details: Gas, single sinker densimeter

`F/C=C/C(F)(F)F` [trans-1,3,3,3-tetrafluoropropene] gave a mass density (263.17 K, 142.52 kPa) of 7.8479 ± 0.023 kg/m3, a mass density (263.18 K, 101.66 kPa) of 5.5042 ± 0.023 kg/m3 and a mass density (263.18 K, 124.43 kPa) of 6.8014 ± 0.023 kg/m3. The mass density (268.16 K, 105.74 kPa) was 5.6056 ± 0.022 kg/m3, the mass density (268.16 K, 137.08 kPa) was 7.3536 ± 0.023 kg/m3 and the mass density (268.17 K, 168.48 kPa) was 9.1497 ± 0.023 kg/m3. For the same compound, the mass density (273.11 K, 102.98 kPa) was 5.3503 ± 0.022 kg/m3, the mass density (273.12 K, 145.02 kPa) was 7.6483 ± 0.022 kg/m3 and the mass density (273.12 K, 198.33 kPa) was 10.6692 ± 0.023 kg/m3. The mass density (278.14 K, 103.54 kPa) was 5.2727 ± 0.022 kg/m3, the mass density (278.14 K, 152.59 kPa) was 7.8948 ± 0.022 kg/m3 and the mass density (278.14 K, 200.35 kPa) was 10.5385 ± 0.023 kg/m3. It also gave a mass density (278.14 K, 249.93 kPa) of 13.3894 ± 0.023 kg/m3, a mass density (283.14 K, 106.17 kPa) of 5.3014 ± 0.021 kg/m3 and a mass density (283.15 K, 201.69 kPa) of 10.3769 ± 0.022 kg/m3. It also gave a mass density (283.15 K, 290.13 kPa) of 15.3909 ± 0.024 kg/m3, a mass density (283.15 K, 303.37 kPa) of 16.1704 ± 0.024 kg/m3 and a mass density (288.11 K, 185.99 kPa) of 9.3221 ± 0.021 kg/m3. It also gave a mass density (288.12 K, 261.69 kPa) of 13.4297 ± 0.023 kg/m3, a mass density (288.12 K, 338.42 kPa) of 17.8195 ± 0.024 kg/m3 and a mass density (288.13 K, 107.78 kPa) of 5.2812 ± 0.021 kg/m3. It also gave a mass density (288.13 K, 356.37 kPa) of 18.8808 ± 0.024 kg/m3, a mass density (293.16 K, 106.73 kPa) of 5.1257 ± 0.021 kg/m3 and a mass density (293.16 K, 210.6 kPa) of 10.407 ± 0.021 kg/m3. For the same compound, the mass density (293.16 K, 302.68 kPa) was 15.3725 ± 0.023 kg/m3 and the mass density (293.16 K, 408.92 kPa) was 21.5052 ± 0.024 kg/m3.
With `CCC` [propane] the mass density (258.14 K, 101.23 kPa) was 2.1368 ± 0.0093 kg/m3, the mass density (258.15 K, 201.63 kPa) was 4.3743 ± 0.0095 kg/m3 and the mass density (258.15 K, 276.61 kPa) was 6.1388 ± 0.0098 kg/m3. It also gave a mass density (263.16 K, 209.67 kPa) of 4.4546 ± 0.0094 kg/m3, a mass density (263.17 K, 101.09 kPa) of 2.0885 ± 0.0091 kg/m3 and a mass density (263.17 K, 314.8 kPa) of 6.8907 ± 0.0097 kg/m3. The mass density (268.14 K, 251.5 kPa) was 5.2792 ± 0.0091 kg/m3, the mass density (268.15 K, 101.59 kPa) was 2.0567 ± 0.009 kg/m3 and the mass density (268.16 K, 297.13 kPa) was 6.3169 ± 0.0098 kg/m3. The mass density (268.16 K, 386.83 kPa) was 8.4369 ± 0.0099 kg/m3, the mass density (273.14 K, 250.22 kPa) was 5.1361 ± 0.0093 kg/m3 and the mass density (273.15 K, 101.64 kPa) was 2.0179 ± 0.0088 kg/m3. It also gave a mass density (273.15 K, 101.65 kPa) of 2.0177 ± 0.0088 kg/m3, a mass density (273.15 K, 462.55 kPa) of 10.0438 ± 0.0098 kg/m3 and a mass density (278.14 K, 283.52 kPa) of 5.7427 ± 0.0093 kg/m3. For the same compound, the mass density (278.14 K, 542.76 kPa) was 11.76 ± 0.0099 kg/m3, the mass density (278.15 K, 105.47 kPa) was 2.0544 ± 0.0087 kg/m3 and the mass density (283.13 K, 101.63 kPa) was 1.942 ± 0.0085 kg/m3. The mass density (283.13 K, 284.93 kPa) was 5.6533 ± 0.0089 kg/m3, the mass density (283.13 K, 452.56 kPa) was 9.3303 ± 0.0097 kg/m3 and the mass density (283.13 K, 615.83 kPa) was 13.2515 ± 0.01 kg/m3. For the same compound, the mass density (288.21 K, 421.87 kPa) was 8.433 ± 0.0093 kg/m3, the mass density (288.21 K, 538.6 kPa) was 11.0628 ± 0.0099 kg/m3 and the mass density (288.22 K, 101.88 kPa) was 1.9105 ± 0.0083 kg/m3. It also gave a mass density (288.22 K, 217.75 kPa) of 4.1713 ± 0.0084 kg/m3, a mass density (288.22 K, 322.62 kPa) of 6.3129 ± 0.0088 kg/m3 and a mass density (288.22 K, 653.34 kPa) of 13.8134 ± 0.01 kg/m3. For the same compound, the mass density (293.1 K, 803.62 kPa) was 17.2181 ± 0.011 kg/m3, the mass density (293.12 K, 106.57 kPa) was 1.9628 ± 0.0083 kg/m3 and the mass density (293.12 K, 340.88 kPa) was 6.5552 ± 0.0084 kg/m3.
